Entries after “also recorded” stand apart in the source; their conditions may differ.
Key:
[1] = Puberty onset (vaginal opening) of female mice exposed in utero; format: in vivo, C57BL/6 mice; details: female offspring, in utero exposure
Method: To assess possible changes in sexual maturation due to in utero ECD exposures during embryogenesis, the day of puberty onset was recorded, as defined based on vaginal opening (VO) in female mice. The mice were examined once a day starting on PND 21. In sexually mature mice, the stage of estrus cycle was determined based on the cytology of their vaginal smear (sampled by pipetting 20 μl PBS in and out of vagina onto a slide) as judged under the microscope. Stage of estrus cycle was determined for each mouse before necropsy and sample collection.

mammary gland [2] = experiment: Mammary gland morphology of in utero exposed mice (whole mounts); format: in vivo, C57BL/6 mice; details: female mice, PND 27
Method: One of the two #4 abdominal mammary glands was dissected and fixed in Carnoy's fixative and processed into whole mounts as previously described (8). The other #4 abdominal gland was snap frozen in liquid nitrogen and stored in −80° C. for future analysis. One of the two thoracic #2-3 mammary glands was fixed in neutral buffered 10% formalin, embedded in paraffin and processed for histology using routine methods, and the other was snap frozen in liquid nitrogen, also stored in −80° C. for future analysis. Uterus was dissected, and one horn with the ovary and vagina attached was fixed in 10% formalin, embedded in paraffin and processed for histology, and the other horn and one ovary were frozen in liquid nitrogen and stored in −80° C.
To assess possible changes in mammary gland morphology, whole amounts of the 4th abdominal glands obtained on PND 27 were processed as previously described (4, 72). The total number of terminal end buds (TEBs) was counted. Identification of TEBs was based on the guidelines established by Russo and Russo (64). The total area (in pixels) of epithelium of the peripubertal (PND 27) mammary glands was analyzed by using ImageJ software (available through NIH web site) on digitized pictures of mammary whole mounts with ducts manually intensified black against white background (shown as an insert in FIG. 16). Ductal elongation (mammary epithelial outgrowth) on PND 50 was measured as the growth in millimeters from the end of the lymph node to the end of the epithelial tree. All the analyses were done blindly using an Olympus dissecting microscope.

[3] = Immediate adverse effects of dietary exposure in adult non-pregnant littermates of dams; format: in vivo, mice; details: last day of dietary exposure, data not shown
Method: For ethical reasons non-pregnant littermate females were used for blood collection instead of the dams, and the samples were taken on the last day of their dietary exposure. Blood was collected by heart puncture of anesthetized mice prior to euthanasia, and serum was separated by centrifugation (1000×g for 10 min) and stored frozen until hormone measurements.
In addition, possible immediate adverse effects of EE2, BPA and GEN exposure for adult mice were evaluated using the non-pregnant littermates of dams. Their body weights were recorded and the mammary gland morphology examined on the last day of their dietary exposure.

mammary tumors [4] = experiment: MPA/DMBA mammary tumorigenesis in mice exposed in utero to EE2, GEN or BPA (Example 5); format: in vivo, C57BL/6 mice
Description: (§1) Additions to the basic diet were as follows: 1) cornstarch [control]; 2) EE2 0.1 ppm; 3) BPA 0.155 ppm; 4) GEN 500 ppm.

PcGTs = experiment: Microarray expression of PcGTs in mammary glands of in utero E2 exposed rats; format: in vivo; details: PND 50
mammary tumors [5] = experiment: Acquired tamoxifen (TAM) resistance of mammary tumors in in utero exposed rats; format: in vivo; details: 14-week follow-up, 7% in the control group
[6] = system: estrogen receptor alpha (ER-a); experiment: ER-a methylation and expression in mammary glands of in utero E2 exposed rats
Description: A high in utero estrogenic environment increases the risk of developing breast cancer (FIG. 1). Increased risk is associated with greater epithelial cell proliferation and survival during mammary gland development, driven by persistent changes in the mammary transcriptome. How these transcriptional changes are initiated and maintained is unclear. […] We then determined whether estrogen receptor alpha (ER-a) is methylated in the E2 exposed rats. […] These mechanisms could include non-coding microRNAs (miRNAs) which are essential for early development and which inhibit expression of their target genes. Since several miRNAs are known to be suppressed by E2 in MCF-7 human breast cancer cells (Maillot et al. Cancer Res 2009), we determined whether persistent changes in miRNA expression may be seen in the adult mammary glands of rats exposed to E2 in utero. miRNAs were measured using applied Biosystems TaqManR Array Rodent MicroRNA.

mammary tumors [7] = experiment: Mammary tumorigenesis in F1 rats exposed to E2 in utero (FIG. 7); format: in vivo; details: F1 generation exposed in utero vs controls
mammary gland [8] = experiment: Mammary gland morphology and TEB number after maternal E2 or high fat diet (FIG. 8, 11); format: in vivo, rats
Description: exposures during pregnancy: […] Statistical analysis was done using ANOVA followed by between group comparisons using Tukey test. […] TEBs are the sites which give rise to malignant mammary tumors in rats; similar structures in the human breast-terminal ductal lobular units-give rise to 90% of human breast cancers.

[9] = system: MCF-7 breast cancer cells; details: MCF-7 cells; cited from earlier work
mammary tumors [10] = experiment: MPA/DMBA-induced mammary tumorigenesis in mice exposed in utero to EE2 or GEN, with or without adult HDAC+DNMT inhibitors
Method: Time pregnant C57BL/6 female mice were obtained from Harlan (Harlan-Teclad, USA) on gestation day 6, and were randomly assigned into three groups on the following day (gestation day 7). The basic diet formulation in the study was a semi-purified AIN93G (the American Institute of Nutrition) modified to replace soy oil for corn oil; all the diets of the three treatment groups were also purchased from Harlan. The diets were isocaloric, as ethinyl estradiol (EE2) or genistein (GEN) were added in the diet at the expense of comstarch. Additions to the basic diet were as follows: 1) EE2 0.1 ppm, and 2) GEN 500 ppm. EE2 was purchased from Sigma Chemicals (St. Louis, Mo., USA), and GEN was a gift from Dr. William Helferich (University of Illinois, Urbana, Ill., USA).
The pregnant dams were fed these diets until the day of the delivery of their pups (Post Natal Day 0, PND 0). Starting on PND 0, all mice were fed the control diet until the end of the study. Female mice born from the dams fed with the different above mentioned diets were used in the subsequent studies. For study outline, see FIG. 12. Animals were housed in a temperature- and humidity-controlled room under a 12-hour light-dark cycle. All animal procedures were approved by the Georgetown University Animal Care and Use Committee, and the experiments were performed following the National Institutes of Health guidelines for the proper and humane use of animals in biomedical research.
Mammary tumors were induced by administration of a subcutaneous injection of Medroxyprogesterone Acetate (MPA) to mice at 6 weeks of age, followed by administration of 1 mg 7,12-dimethylbenz(a)anthracene (DMBA) (Sigma, St. Louis, Mo.) weekly for four weeks (weeks 7, 8, 9, 10) (23). The carcinogen was dissolved in corn oil and administered by oral gavage in a volume of ca. 0.1 ml.
One week after the last dose of DMBA was administered, some of the mice were started on hydralazine (5 mg/kg/day) and valproic acid treatments (1.16 g/kg/day) treatments.
The two compounds were given in a drinking water, which was prepared fresh twice a week. The doses were chosen based on the literature (24-26). The number of animals in each group is as follows: Control n=18, Control given HDAC+DNMT inhibitors n=9, EE2 n=9, EE2 given HDAC+DNMT inhibitors n=6, GEN n=14, and GEN given HDAC+DNMT inhibitors n=8.
Mice were examined for mammary tumors by palpation once per week. Tumor growth was monitored for 16 weeks after the last dose of DMBA administration. During the follow-up, animals in which tumor burden approximated 10% of total body weight were euthanized, as required by the ethical guidelines of our institution. All surviving animals were sacrificed at that point for sample collection. The end-points for tumor data analysis were (i) latency to tumor appearance, (ii) the number of animals with tumors (tumor incidence), and (iii) the cumulative tumor area (tumor burden). The latter was achieved by adding the total tumor area per group each week and dividing it with the number of mice in the group.
(§2) Mammary tumor latency was compared with the final tumor burden in utero EE2 and GEN exposed mice to control mice, and in utero EE2 and GEN exposed mice to control mice exposed to HDAC+DNMT inhibitors separately; analysis was done using one-way ANOVA. Cumulative tumor burden during 16 weeks of tumor monitoring in the three groups, separately in those mice not given HDAC+DNMT inhibitors and those treated with the epigenetic drugs, was analysed using repeated measures one-way ANOVA. Log rank analysis was performed to compare mammary tumor incidence in the control and in utero EE2 and GEN exposed mice, again separately in those mice not given HDAC+DNMT inhibitors and those treated with the epigenetic drugs. Data for changes in DNMT1 expression among the groups in the mammary glands and tumors were assessed using two-way ANOVA, followed by Fisher LSD test

DNMT1 = DNMT1 mRNA expression (qRT-PCR) in mouse mammary glands and tumors; format: in vivo; details: in utero exposure vs control mice
Description: Total RNA was extracted using an RNeasy lipid mini kit (Qiagen, CA), according to manufacturer's instructions. One […] of total RNA per sample was used as a template for oligo-dT primed cDNA synthesis with a Supterscript reverse transcriptase, using Taqman Reverse Transcription kit (Applied Biosystems, CA). The cDNA samples served then as templates for quantitative real time PCR analysis with specific primers for the target gene using QuantiTect SYBR green PCR kit (Qiagen Inc., Valencia, Calif.) and an ABI Prism 7900 Sequence Detection System. Each sample was run in triplicate on a 384-well plate, and the qPCR run was repeated twice. The Ct values were averaged from the triplicates for each sample. To normalize the target gene expression the ratio to control RNA was calculated, i.e. the averages of the Ct triplicates from the Dnmt1 gene were divided by the average of the triplicates from the 18S gene. To determine the fold change of the target gene expression the results are presented as 2^ΔCt, where ΔCt=CT^target−Ct^18S.
The primer sequences for m18S rRNA were as previously published by Wang et al. (27).
as §2

[11] = Body weight and growth of in utero exposed pups; format: in vivo, C57BL/6 mice; details: in utero exposure
Description: as §1

CC(C)(c1ccc(O)cc1)c1ccc(O)cc1 [BPA, Bisphenol A]
puberty onset / vaginal opening [1]: no effect | total epithelial area of the glands (mammary gland [2]): significantly increased | body weight or mammary epithelial development [3]: No significant differences | cumulative tumor burden compared to the group exposed to control diet in utero (mammary tumors [4]; C57BL/6, mouse, in vivo): ~1.5 times | mammary tumorigenesis (onset of tumor growth and cumulative tumor burden) (mammary tumors [4]; mouse, in vivo): Enhanced mammary tumorigenesis

C[C@]12CC[C@@H]3c4ccc(O)cc4CC[C@H]3[C@@H]1CC[C@@H]2O [E2, estradiol]
Fold down-regulated in E2 group (PcGTs; Actn1, alpha 1 actin): −5.63 (p < 0.03) Fold | Fold down-regulated in E2 group (PcGTs; Ccl2, chemokine (C-C motif) ligand 2): −1.81 (0.00) Fold | Fold down-regulated in E2 group (PcGTs; Ckm, muscle creatine kinase): −7.68 (p < 0.01) Fold | Fold down-regulated in E2 group (PcGTs; H19/Pro2605, H19fetal liver mRNA (imprinted gene)): −3.28 (p < 0.03) Fold | Fold up-regulated in E2 group (PcGTs; Hmgcs2, 3-hydroxy-3-methylglutaryl-Coenzyme A synthase 2): 2.46 (p < 0.00) Fold | Fold up-regulated in E2 group (PcGTs; Lep, Leptin): 1.59 (p < 0.02) Fold | Fold down-regulated in E2 group (PcGTs; Myh13, heavy polypeptide 13 myosin): −6.08 (p < 0.01) Fold | Fold down-regulated in E2 group (PcGTs; Myl2, light polypeptide 2 myosin): −10.19 (p < 0.02) Fold | Fold up-regulated in E2 group (PcGTs; Pdk4, puruvate dehydrogenase kinase isoenzyme 4): 1.82 (p < 0.02) Fold | Fold down-regulated in E2 group (PcGTs; Pvnlb, parvalbumin): −8.64 (p < 0.03) Fold | acquired resistance to TAM (mammary tumors [5]): 50% | expression of ER-a [6]: up-regulated | Mammary tumor incidence (mammary tumors [7]): higher | total tumor burden (mammary tumors [7]): also higher | tumor multiplicity (mammary tumors [7]): also higher | number of TEBs (mammary gland [8]; 1st generation offspring, postnatal day 21): increased | mammary gland morphology (parenchyma, TEBs, ductal elongation, size) (mammary gland [8]; 21-day-old rats exposed to 10 μg in utero vs control rats): contain a larger parenchyma and more TEBs, exhibit more advanced ductal elongation, and are larger | expression of the same miRNAs [9]: down-regulated

O=c1c(-c2ccc(O)cc2)coc2cc(O)cc(O)c12 [GEN, Genistein]
mammary tumorigenesis (mammary tumors [10]; in utero exposed offspring compared to the controls): increased mammary tumorigenesis | Latency for first tumor to develop (mammary tumors [10]; in utero exposure (EE2 0.1 ppm or GEN 500 ppm in dam's diet) vs control mice): significantly shorter | Mammary tumor incidence (mammary tumors [10]; in utero exposure vs control mice): significantly higher | Final tumor burden per mouse (mammary tumors [10]; in utero exposure vs controls): significantly higher | DNMT1 expression in mammary tumors (DNMT1): significantly lower | expression of DNMT1 in mammary glands (DNMT1): a similar increase; also recorded: an increase in DNMT1 expression; also recorded: persistent up-regulation | birthweight, or postnatal weight development [11]: did not alter | puberty onset / vaginal opening [1]: delayed vaginal opening | puberty onset / vaginal opening ([1]; listed as genistein): delayed puberty onset | total epithelial area of the glands (mammary gland [2]): nearly significantly increased | body weight or mammary epithelial development [3]: No significant differences | cumulative tumor burden compared to the group exposed to control diet in utero (mammary tumors [4]; in utero exposure): approximately four | mammary tumorigenesis (onset of tumor growth and cumulative tumor burden) (mammary tumors [4]; in utero exposure compared to controls): Enhanced mammary tumorigenesis

Source: patent US20130324543A1, “REVERSAL OF HIGH BREAST CANCER RISK IN MAMMALS EXPOSED TO ESTROGENIC CHEMICALS IN UTERO BY ADULT EXPOSURE TO HDAC AND DNMT INHIBITORS” (Georgetown University, priority 2012, published 2013)
